“And” between values parts separate entries of the source, which are not always exact repeats. Equal values may be shown once. One block for each compound: values may come before it.
Key:
[1] = test system: Tissue Factor Pathway Inhibitor (TFPI); assay: TFPI concentration plasma levels in healthy volunteers after repeated betaine ingestion; format: in vivo, human; details: for TFPI CONCENTRATION: individual donors
Protocol: (§1) After obtaining the baseline blood samples (sample a) from fastened normal healthy volunteers (n=10), Betaine was repeatedly administered in daily doses of 6 g. (2×3) for 1 week. After obtaining the 1 week blood sample from fastened volunteers (sample b) Betaine was again administered orally at a dose of 3 g. and a third blood sample drawn after one hour (sample c). […] The blood samples were centrifuged and the separated platelet poor plasma was then aliquoted and frozen at −70° C. for subsequent analysis for nitric oxide (NO), tissue factor pathway inhibitor (TFPI) activity levels and global clotting assays.
(§2) The samples are identified for each donor as number of donor (1, 2, etc) followed by the letter of the sample (a, b, c).

[2] = test system: Tissue Factor Pathway Inhibitor (TFPI); assay: TFPI activity plasma levels in healthy volunteers after repeated betaine ingestion; format: in vivo, human; details: for TFPI ACTIVITY: individual donors
Protocol: as §1, §2

total nitric oxide = assay: Nitric oxide plasma levels in healthy volunteers after repeated betaine ingestion; format: in vivo, human; set-up: Nitric oxide plasma levels Conc / Nitric oxide plasma levels Conc (×2): unit not given here; details: for Nitric oxide plasma levels Conc / Nitric oxide plasma levels Conc (×2): individual donors
Protocol: as §1, §2

[3] = test system: fresh blood (Thromboelastograph); assay: TEG parameters after betaine oral administration in healthy volunteers; format: in vivo, human; details: for K / MA / R / α Angle: T0 + 60 mn after 75 mg/kg single oral dose
Protocol: Betaine is administrated at 75 mg/kg single oral dose at T0 to fastened healthy volunteers just after the basal blood sample. At T0 and T0+60 mn the fresh blood samples are immediately evaluated in the Thromboelastograph (TEG®—Haemoscope Corp.—Illinois).
R parameter corresponds to […] initial fibrin formation, and is functionally related to plasma clotting factors and clot formation.

[4] = test system: photochemically-induced brain ischemia; assay: Photochemically-induced (rose Bengal) focal cerebral ischemia on rats; format: in vivo, rat; details: for Red Ischemic Area, Excluding Blue Evan Penumbra / Weight of ischemic area: mean
From the text: The aim of this study was to evaluate the activity of Betaine on thrombus formation in a rat model of photochemically-induced brain ischemia. The method (11) is based on local free radical release exerted by filtered light acting on rose Bengal previously injected in animals. Free radicals are known to induce endothelial damage, followed by platelet aggregation, thrombus formation and vascular occlusion. Briefly, an optic fiber in close contact shone denuded intact skulls (diameter of the illuminated circle 5.4 mm, luminance at the entrance of optic fiber was 5.6×10^6 Ix). After turning on the lamp, an infusion through the caudal vein of a 5 mg/mL (w/v) solution of rose Bengal in saline was started. Two mL of the solution were administered at a flow rate of 0.1 mL/min. After 20 min, at the end of the infusion, the lamp was turned off. [table] Evan's Blue solution (2% w/v) in saline was intravenously injected (1 mL/rat), 18-20 h after the ischemia induction in order to reveal the BBB breakdown. The rats were sacrificed 20 min after Evan's Blue injections and their brains removed. The infarcted area was visually verified, photographed by digital camera and then weighed.

nitric oxide = assay: Nitric oxide production in healthy volunteers after single betaine ingestion (plasma, Griess reaction); format: in vivo, human; set-up: Conc. (nitric oxide) / Conc. (2) (nitric oxide): unit not given here
Protocol: Betaine is administrated at 75 mg/kg single oral dose at T0 to fastened healthy volunteers just after the basal blood sample. At T0 and T0+60 mn fresh blood samples are centrifuged to obtain plasma.
The samples are then tested for nitric oxide with the Griess reaction.

[5] = test system: thrombus formation in mesenteric veinules or arterioles; assay: Laser-induced thrombosis in rat mesenteric circulation; format: in vivo, Wistar rats; details: for duration of embolisation / emboli / laser beams: oral 60 minutes before laser thrombosis
From the text: Male Wistar rats (200-270 gram) were used for the experiments. […] After the medial laparotomy the intestinal loop was placed on the microscope table. Vascular lesions were produced by Argon laser […] This shot causes a well limited lesion of the vascular endothelium (only few cells are destroyed) exposing the thrombogenetic under-layer of the sub-endothelium. The contact of blood with this surface triggers the adherence of platelets via glycoproteins Ib & IIb IIIa. This adherence of platelets is followed by their activation: they form pseudopods and secrete the content of their granules. As a consequence thrombus formation occurs within few seconds. This platelet rich thrombus rapidly enlarges under influence of blood flow, embolises (i.e. is disrupted and carried by the flow from the thrombogenic area) before a new thrombus being formed again on the injured surface. […] Up to four shots can be fired if no emboli (platelet thrombus) are readily appearing. The number of successive laser beams and emboli formed are then recorded. In the presence of an antithrombotic compound a higher number of laser shots are necessary to induce thrombus formation. Similarly, a smaller number of emboli (platelet thrombi) are formed as compared with controls and the duration of the embolisation is also shorter. […] Similarly, a higher number of emboli (platelet thrombi) are formed as compared with controls and the duration of the embolisation is also longer. Betaine is orally administrated to animals at 50 mg/kg, 60 minutes before laser thrombosis.

[6] = test system: fresh blood (Thromboelastograph); assay: TEG parameters after betaine oral administration in healthy volunteers; format: in vivo, human; details: evaluated with TEG
[7] = test system: Pulmonary Arterial Hypertension; assay: Betaine added to Bosentan in patients with Pulmonary Arterial Hypertension (PAP, heart rate, 6MWT); format: in vivo, human; details: after two weeks of anhydrous betaine 6 g/day bid added to Bosentan 125 mg bid
Protocol: Nine patients suffering from Pulmonary Arterial Hypertension and taking 125 mg Bosentan bid were randomly assigned to placebo (lactose monohydrate) 6 g/day bid (4 patients) or to anhydrous betaine 6 g/day bid (5 patients) during two weeks. They were assessed for haemodynamic variables and for 6 minutes walking test at inclusion and after the two weeks of medication with placebo or betaine. Pulmonary Artery Pressure (PAP) and Heart rate were non-invasively estimated by Doppler echocardiography method. 6MWT was performed on a treadmill.

[8] = test system: blood (rate of initial fibrin formation); assay: TEG at each blood draw during repeated betaine ingestion; format: in vivo, human; details: compared to the baseline values; 6 g daily for 1 week, then 3 g
Protocol: as §1

[9] = test system: whole blood platelet aggregation; assay: Whole blood aggregation, ADP 5 μM; format: in vivo, Wistar rats; details: oral
Protocol: Blood is sampled by intracardiac puncture on trisodium citrate solution (3, 8% sodium citrate/blood 1/9 vv) using the 2 syringes technique.
ADP 5 μM in final concentration is used as agonist. Amplitudes are expressed in ohms (Ω) and velocities in ohm/min (Ω/min)

[10] = betaine oral administration, healthy volunteers (n=10)
[11] = sample b: fasted, after 6 g daily (2×3) for 1 week
[12] = sample c: one hour after a further 3 g oral dose following 1 week of 6 g daily
[13] = healthy volunteers, 60 minutes after oral administration
[14] = mean T0 + 60 mn versus mean basal value
[15] = Betaine 10 mg/kg sc 1 h before ischemia induction, n = 10
[16] = Betaine 10 mg/kg sc at the end of ischemia induction, n = 10, (*) P<0,05
[17] = plasma, Post = T0+60 mn after 75 mg/kg single oral dose, individual volunteers
[18] = Celebrex 10 mg + saline, individual rats
[19] = Celebrex 10 mg + saline, mean of 6 rats
[20] = ASA 50 mg/kg iv 30 min before ischemia induction, n = 5
[21] = ASA 200 mg/kg iv 30 min before ischemia induction, n = 10
[22] = NS 398 5 mg + saline, individual rats
[23] = NS 398 5 mg + saline, mean of 6 rats

- Crossing of encephalic barrier ([4]; rat, after being present in blood stream): ability to cross encephalic barrier
Structure (SMILES): C[N+](C)(C)CC(=O)O [Betaine, glycine betaine]
- TFPI concentration plasma levels [1, 10]: increased
- TFPI CONCENTRATION [1, 11]: 59.45 ng/mL and 66.23 ng/mL and 84.35 ng/mL and 47.14 ng/mL and 64.57 ng/mL and 76.40 ng/mL and 93.34 ng/mL and 47.28 ng/mL and 70.31 ng/mL and 89.81 ng/mL
- TFPI CONCENTRATION [1, 12]: 86.98 ng/mL and 70.38 ng/mL and 76.12 ng/mL and 70.52 ng/mL and 82.62 ng/mL and 89.19 ng/mL and 87.74 ng/mL and 58.62 ng/mL and 63.25 ng/mL and 83.38 ng/mL
- TFPI activity plasma levels [2, 10]: increased
- TFPI ACTIVITY [2, 11]: 3.30 U/ml and 181.61 ng/ml and 2.74 U/ml and 150.83 ng/ml and 2.66 U/ml and 146.34 ng/ml and 2.30 U/ml and 126.36 ng/ml and 2.17 U/ml and 119.46 ng/ml and 4.66 U/ml and 256.55 ng/ml and 3.39 U/ml and 186.37 ng/ml and 2.99 U/ml and 164.44 ng/ml and 3.52 U/ml and 193.76 ng/ml and 4.43 U/ml and 243.59 ng/ml
- TFPI ACTIVITY [2, 12]: 3.60 U/ml and 197.99 ng/ml and 2.19 U/ml and 120.49 ng/ml and 1.71 U/ml and 94.20 ng/ml and 2.74 U/ml and 150.83 ng/ml and 2.98 U/ml and 163.73 ng/ml and 4.53 U/ml and 248.91 ng/ml and 3.65 U/ml and 200.57 ng/ml and 3.23 U/ml and 177.73 ng/ml and 3.45 U/ml and 189.62 ng/ml and 4.03 U/ml and 221.52 ng/ml
- Nitric oxide levels (total nitric oxide; [10]): increased
- Nitric oxide plasma levels Conc (total nitric oxide; [11]): 29.11 and 28.89 and 9.11 and 26.28 and 20.2 and 22.59 and 13.24 and 21.5 and 24.11 and 14.11
- Nitric oxide plasma levels Conc (×2) (total nitric oxide; [11]): 58.217 and 57.783 and 18.217 and 52.565 and 40.391 and 45.174 and 26.478 and 43 and 48.217 and 28.217
- Nitric oxide plasma levels Conc (total nitric oxide; [12]): 14.54 and 41.07 and 39.96 and 27.8 and 26.72 and 22.8 and 25.85 and 11.93 and 31.28 and 27.15
- Nitric oxide plasma levels Conc (×2) (total nitric oxide; [12]): 29.087 and 82.13 and 79.957 and 55.609 and 53.435 and 45.609 and 51.696 and 23.87 and 62.565 and 54.304
- K ([3]; individual volunteers): 2.5 mn and 1.8 mn and 2.0 mn and 1.3 mn (2×) and 2.7 mn
- MA ([3]; individual volunteers): 52.6 mm and 65.0 mm and 56.8 mm and 65.8 mm and 61.9 mm and 70.1 mm
- R ([3]; individual volunteers): 5.8 mn and 7.3 mn and 7.4 mn and 4.8 mn and 8.4 mn and 6.3 mn
- α Angle ([3]; individual volunteers): 57.5 ° and 65.5 ° and 64.2 ° and 71.9 ° and 66.9 ° and 70.4 °
- K ([3]; mean of 6 volunteers): 1.9 mn
- MA ([3]; mean of 6 volunteers): 62.0 mm
- R ([3]; mean of 6 volunteers): 6.8 mn
- α Angle ([3]; mean of 6 volunteers): 66.1 °
- Blood coagulation (R parameter) [3, 13]: significantly prolonged
- Other TEG parameters [3, 13]: remained stable
- Δ K [3, 14]: −8%
- Δ MA [3, 14]: +3%
- Δ R [3, 14]: +45%
- Δ α Angle [3, 14]: +1%
- Red Ischemic Area, Excluding Blue Evan Penumbra [4, 15]: 0.335 cm^2
- Weight of ischemic area [4, 15]: 36 mg
- Red Ischemic Area, Excluding Blue Evan Penumbra [4, 16]: 0.28 cm^2
- Weight of ischemic area [4, 16]: 25 mg
- Efficacy in the stroke model compared with Aspirin ([4]; rat, Betaine 10 mg/kg sc): better efficacy than Aspirin
- Nitric oxide levels (nitric oxide; oral administration, all tested volunteers): markedly increased
- Conc. (2) (nitric oxide) (nitric oxide; [17]): 41.81 and 24.14 and 65.53 and 114.21 and 70.19 and 72.51
- Conc. (nitric oxide) (nitric oxide; [17]): 20.91 and 12.07 and 32.77 and 57.42 and 35.09 and 36.26
- Number of laser beams, number of emboli and duration of embolisation relative to saline control values ([5]; Betaine co-administration with selective COX 2 inhibitors): normalise
- Protection from selective COX 2 inhibitors thrombogenicity ([5]; rats, Betaine co-administered orally at 50 mg/kg): clearly protects animals from selective COX 2 inhibitors thrombogenicity
- R prolongation compared with Lovenox in post orthopaedic surgery patients [6]: as potent as Lovenox® anticoagulation
- Heart rate 2 ([7]; individual patients): 84 beats/minute and 67 beats/minute and 74 beats/minute and 69 beats/minute and 72 beats/minute
- Week 2 ECO 2 PAP ([7]; individual patients): 71 mmHg and 60 mmHg and 80 mmHg and 65 mmHg and 58 mmHg
- 6MWT 2 ([7]; mean of 5 patients): 413 m
- Heart rate 2 ([7]; mean of 5 patients): 73.2 beats/minute
- Week 2 ECO 2 PAP ([7]; mean of 5 patients): 66.8 mmHg
- 6MWT 2 ([7]; treadmill, individual patients): 380 m and 504 m and 360 m and 411 m and 410 m
- TEG reaction time, i.e. rate of initial fibrin formation [8]: marked prolongation

Structure (SMILES): Cc1ccc(-c2cc(C(F)(F)F)nn2-c2ccc(S(N)(=O)=O)cc2)cc1 [Celebrex ®]
- amplitude [9, 18]: 13 Ω (3×) and 12 Ω and 14 Ω and 21 Ω
- velocity [9, 18]: 8 Ω/min (2×) and 7 Ω/min (2×) and 13 Ω/min and 9 Ω/min
- amplitude [9, 19]: 14.33 Ω
- velocity [9, 19]: 8.67 Ω/min
- duration of embolisation [5, 18]: 4 (2×) and 5 (3×) and 9
- emboli [5, 18]: 9 and 8 and 11 (2×) and 17 and 12
- laser beams [5, 18]: 2 (3×) and 1 (3×)
- duration of embolisation [5, 19]: 5.33
- emboli [5, 19]: 11.33
- laser beams [5, 19]: 1.5

Structure (SMILES): CC(=O)Oc1ccccc1C(=O)O [ASA, Acetylsalicylic acid, reference compound]
- Red Ischemic Area, Excluding Blue Evan Penumbra [4, 20]: 0.322 cm^2
- Weight of ischemic area [4, 20]: 35.0 mg
- Red Ischemic Area, Excluding Blue Evan Penumbra [4, 21]: 0.29 cm^2
- Weight of ischemic area [4, 21]: 40 mg

Structure (SMILES): CS(=O)(=O)Nc1ccc([N+](=O)[O-])cc1OC1CCCCC1 [NS 398]
- amplitude [9, 22]: 9 Ω (2×) and 10 Ω and 2 Ω and 12 Ω and 6 Ω
- velocity [9, 22]: 9 Ω/min and 7 Ω/min (4×) and 5 Ω/min
- amplitude [9, 23]: 8 Ω
- velocity [9, 23]: 7 Ω/min
- duration of embolisation [5, 22]: 5 (2×) and 4 (2×) and 3 and 2
- emboli [5, 22]: 11 and 9 (2×) and 10 and 7 and 8
- laser beams [5, 22]: 2 (5×) and 1
- duration of embolisation [5, 23]: 3
- emboli [5, 23]: 9
- laser beams [5, 23]: 1.83

— US8318805B2, “Modulation of nitric oxide synthases by betaines” (priority 2004, dated 2012)
